Tested on: Rat oligodendrocyte precursor cells (OPCs)
Experiment: OPC differentiation assay
Assay type: cell-based
Conditions: percentage of MBP+ cells
Procedure: In the oligodendrocyte precursor cell (OPC) in vitro differentiation assay, purified or enriched OPCs are cultured and differentiated into immature oligodendrocytes, mature oligodendrocytes, and myelinating oligodendrocytes (Watkins et al. (2008) Neuron 60:555-569). Specific markers have been identified for each specific stage of OPC differentiation. Myelin basic proteins (MBP), a specific marker for matured and myelinating oligodendrocytes, is used as an indicator for OPC differentiation and maturation (Franklin et al. (2008) J Neurosci, 255 Suppl 1:19-25). The OPC differentiation assay provides a tool to screen the compounds with the potency of promoting OPC differentiation, which is an initial step for downstream remyelination repair in vivo after demyelination occurs in mutiple scelerosis (MS) patients.
Rat oligodendrocyte precursor cells (OPCs) were obtained from P1 pups and were cultured in DMEM/20S medium (DMEM with 20% FBS, 4 mM L-Glutamine, 1 mM sodium pyruvate and penicillin) (Zhang et al. (2007) Nature Protocol 2 (5):1044). […] The plate was read on Cellomics (SN: 04080019LH; P/N no 1-0117) using target activation protocol to calculate the percentage of MBP+ cells to reflect the differentiation of OPCs.

IC50 (Oligodendrocyte precursor cell, read-out: pIC50 (OPC differentiation assay) (converted)): 6.31 µM
SMILES: CC1=CCC[C@H]1NC(=O)Nc1ccc(Cl)c(S(=O)(=O)[C@@]2(C)CCOC2)c1O [Compound 195, 1-(4-chloro-2-hydroxy-3-(((S)-3-methyltetrahydrofuran-3-yl)sulfonyl)phenyl)-3-((R)-2-methylcyclopent-2-en-1-yl)urea]
OPC differentiation: promote OPC differentiation
